From patent US10842892B2, “Methods and apparatus for synthesizing imaging agents, and intermediates thereof” (Lantheus Medical Imaging, Inc., priority 2010, dated 2020)

What was measured:
normal subjects = experiment: human safety, dosimetry, biodistribution and rest-stress myocardial imaging in normal subjects; type: in vivo
Procedure: 25 normal subjects were enrolled in 2 studies: 13 received 222 MBq I.V. At rest (R) only and 12 more subjects received 94 MBq at R and, on a second day, 124 MBq at peak adenosine stress (Adeno, n=6) or at peak treadmill exercise (Ex, n=6). Physical exam, laboratory, vital signs, ECG, and EEG were monitored pre- and post-injection. Myocardial (Myo), liver, blood pool and lung Standardized Uptake Values (SUV) were determined from sequential PET images over time. Mean dose for various organs and mean effective dose (ED in mSv/MBq) were estimated.

[1] = early elimination of ^18F in urine; type: in vivo, human
Procedure: Urine collected pre-dose (Baseline), and all voids up to 8 hours post-dose were collected and assayed for ^18F. However, as in blood collection, the urine collection terminated near the 7-hour minimum specified in the protocol. Mean urinary excretion over the approximate 7-hour void interval was 4.83% ID with a % CV of 64.7 and a range of 0.64% ID to 12.41% ID. This finding is in reasonable agreement with cumulative urine excretion of 5% as measured with PET imaging.

control and MI rabbits = experiment: cardiovascular evaluation (ECG, arterial pressure) after injection in control and MI rabbits; type: in vivo, rabbit
Procedure: PET images and cardiovascular parameters were evaluated in both normal and MI rabbits. Prior to imaging, the rabbit was anesthetized with ketamine (25 mg/Kg, im) and xylazine (5 mg/Kg, im) and the marginal ear vein was catheterized for imaging agent 1 injection. The right femoral artery was isolated and canulated with a Millar catheter (SPC340, Millar Instruments, Houston, Tex.) for arterial pressure measurement. Then the animal was positioned in a microPET camera (Focus220, CTI Molecular Imaging, Inc. Knoxville, Tenn.) for cardiac imaging. The Millar catheter was connected to a computer driven data acquisition system (MP35, BIOPAC Systems, Goleta, Calif.) for recording of mean arterial pressure (MAP), and systolic and diastolic arterial pressure (SAP and DAP). In addition, electrocardiogram (ECG) was also recorded with 3 non-invasive limb leads in lead II configuration using the BIOPAC system. Heart rate (HR) and QT interval were derived from ECG recording. After a stabilization period, cardiovascular parameters: MAP, SBP, DBP and ECG, were recorded 5 minutes before imaging agent 1 intravenous injection (˜1.5 mCi) and the recording continued for additional 20 minutes post-injection. The rabbit was imaged for 30 minutes.
Data are expressed as mean±SD and unpaired student t-test (assuming unequal variances) was used for comparison of baseline values between control and MI rabbits. p<0.05 was considered statistically significant. At each timepoint (before and 1-, 5-, 10- and 20-minute after imaging agent 1 injection), MAP, SAP and DAP measured intraarterially averaged every 10-second, and HR and QTc interval derived from ECG recording averaged every 12 heart beats. The QT interval was manually defined by one investigator and QTc was generated from QT corrected by RR interval using Fridericia method (QTc=QT/RR1/3).9

anesthetized naive dogs = experiment: cardiovascular changes in anesthetized naive dogs; type: in vivo, dog; details: intravenous injection, unpublished data
[2] = tested on: blood brain barrier (BBB); experiment: brain uptake with and without blood brain barrier disruption; type: in vivo, rat; details: rat
Procedure: Male Sprague-Dawley rats were anesthetized with sodium pentobarbital and the left external carotid artery was cannulated close to the internal and external carotid bifurcation. Using saline as control and 25% D-mannitol as hypertonic solution, each were perfused retrogradely in six animals (0.3 mL/kg/sec) for 30 seconds. Two minutes later, ˜1 mCi imaging agent 1 was injected via tail vein and the brain was imaged with a microPET camera for 30 minutes. […] Following completion of imaging, the brain was harvested, photographed and dissected into left and right hemispheres and cerebellum. The tissue content of imaging agent 1 radioactivity was measured by gamma counter and Evans blue levels were determined by fluorescence method for calculation of the % injected dose/gram tissue and μg Evan blue/gram tissue, respectively.

myocardial blood flow = details: humans, assumed, equivalent to prior studies; cited from earlier work
normal rats and dogs = details: cited from earlier work

CC(C)(C)n1ncc(OCc2ccc(COCC[18F])cc2)c(Cl)c1=O [imaging agent 1, 2-t-butyl-4-chloro-5-[4-(2-(^18F)fluoroethoxymethyl)-benzyloxy]-2H-pyridazin-3-1]
adverse events (normal subjects; 25 normal subjects): no adverse events related to the tracer
Adeno Myo SUV (normal subjects; 10 mins): 10.5 ± 1.5
Adeno Myo/liver (normal subjects; 10 mins): 1.9 ± 0.6
Exercise Myo SUV (normal subjects; 10 mins): 6.2 ± 2.1
Exercise Myo/liver (normal subjects; 10 mins): 28.0 ± 33.6
Rest Myo SUV (normal subjects; 10 mins): 3.9 ± 0.9
Rest Myo/liver (normal subjects; 10 mins): 1.0 ± 0.3
Adeno Myo SUV (normal subjects; 30 mins): 10.8 ± 2.1
Adeno Myo/liver (normal subjects; 30 mins): 2.0 ± 0.5
Exercise Myo SUV (normal subjects; 30 mins): 5.5 ± 1.0
Exercise Myo/liver (normal subjects; 30 mins): 5.6 ± 1.0
Rest Myo SUV (normal subjects; 30 mins): 4.2 ± 1.1
Rest Myo/liver (normal subjects; 30 mins): 0.9 ± 0.2
Adeno Myo SUV (normal subjects; 60 mins): 10.3 ± 2.1
Adeno Myo/liver (normal subjects; 60 mins): 2.2 ± 0.5
Exercise Myo SUV (normal subjects; 60 mins): 5.1 ± 0.9
Exercise Myo/liver (normal subjects; 60 mins): 5.6 ± 1.3
Rest Myo SUV (normal subjects; 60 mins): 4.5 ± 1.2
Rest Myo/liver (normal subjects; 60 mins): 1.1 ± 0.2
Adeno Myo SUV (normal subjects; 90 mins): 9.6 ± 2.1
Adeno Myo/liver (normal subjects; 90 mins): 2.6 ± 0.5
Exercise Myo SUV (normal subjects; 90 mins): 4.9 ± 0.9
Exercise Myo/liver (normal subjects; 90 mins): 5.8 ± 1.5
Rest Myo SUV (normal subjects; 90 mins): 4.3 ± 1.3
Rest Myo/liver (normal subjects; 90 mins): 1.4 ± 0.2
Adeno Myo SUV (normal subjects; 149 mins): 8.4 ± 2.1
Adeno Myo/liver (normal subjects; 149 mins): 3.8 ± 1.0
Exercise Myo SUV (normal subjects; 149 mins): 4.5 ± 0.8
Exercise Myo/liver (normal subjects; 149 mins): 5.5 ± 1.5
Rest Myo SUV (normal subjects; 149 mins): 4.1 ± 1.4
Rest Myo/liver (normal subjects; 149 mins): 2.1 ± 0.3
mean effective dose (ED) (normal subjects; at rest (R)): 0.019 mSv/MBq
mean effective dose (ED) (normal subjects; with adenosine stress (Adeno)): 0.019 mSv/MBq
mean effective dose (ED) (normal subjects; with exercise (Ex)): 0.015 mSv/MBq
Mean urinary excretion ([1]; approximate 7-hour void interval): 4.83 % ID
cumulative urine excretion as measured with PET imaging ([1]; in vivo): 5%
QTc, change from baseline after injection (control and MI rabbits; Control rabbits (n = 3), 1 min): 2 ± 15 ms
QTc, change from baseline after injection (control and MI rabbits; Control rabbits (n = 3), 5 min): -1 ± 11 ms
QTc, change from baseline after injection (control and MI rabbits; Control rabbits (n = 3), 10 min): 6 ± 20 ms
QTc, change from baseline after injection (control and MI rabbits; Control rabbits (n = 3), 20 min): 9 ± 15 ms
Diastolic AP, change from baseline after injection (control and MI rabbits; Control rabbits, 1 min): 0 ± 1 mmHg
Heart rate, change from baseline after injection (control and MI rabbits; Control rabbits, 1 min): −4 ± 2 beat/min
Mean AP, change from baseline after injection (control and MI rabbits; Control rabbits, 1 min): 0 ± 0 mmHg
Systolic AP, change from baseline after injection (control and MI rabbits; Control rabbits, 1 min): 0 ± 1 mmHg
Diastolic AP, change from baseline after injection (control and MI rabbits; Control rabbits, 5 min): −1 ± 2 mmHg
Heart rate, change from baseline after injection (control and MI rabbits; Control rabbits, 5 min): −2 ± 1 beat/min
Mean AP, change from baseline after injection (control and MI rabbits; Control rabbits, 5 min): −2 ± 0 mmHg
Systolic AP, change from baseline after injection (control and MI rabbits; Control rabbits, 5 min): −2 ± 1 mmHg
Diastolic AP, change from baseline after injection (control and MI rabbits; Control rabbits, 10 min): 0 ± 5 mmHg
Heart rate, change from baseline after injection (control and MI rabbits; Control rabbits, 10 min): −2 ± 4 beat/min
Mean AP, change from baseline after injection (control and MI rabbits; Control rabbits, 10 min): −2 ± 3 mmHg
Systolic AP, change from baseline after injection (control and MI rabbits; Control rabbits, 10 min): −1 ± 6 mmHg
Diastolic AP, change from baseline after injection (control and MI rabbits; Control rabbits, 20 min): 0 ± 5 mmHg
Heart rate, change from baseline after injection (control and MI rabbits; Control rabbits, 20 min): −4 ± 4 beat/min
Mean AP, change from baseline after injection (control and MI rabbits; Control rabbits, 20 min): −1 ± 6 mmHg
Systolic AP, change from baseline after injection (control and MI rabbits; Control rabbits, 20 min): 0 ± 5 mmHg
QTc, change from baseline after injection (control and MI rabbits; MI rabbits (n = 4), 1 min): 8 ± 5 ms
QTc, change from baseline after injection (control and MI rabbits; MI rabbits (n = 4), 5 min): 4 ± 6 ms
QTc, change from baseline after injection (control and MI rabbits; MI rabbits (n = 4), 10 min): 4 ± 8 ms
QTc, change from baseline after injection (control and MI rabbits; MI rabbits (n = 4), 20 min): 3 ± 12 ms
Diastolic AP, change from baseline after injection (control and MI rabbits; MI rabbits, 1 min): 1 ± 1 mmHg
Heart rate, change from baseline after injection (control and MI rabbits; MI rabbits, 1 min): 6 ± 5 beat/min
Mean AP, change from baseline after injection (control and MI rabbits; MI rabbits, 1 min): 2 ± 1 mmHg
Systolic AP, change from baseline after injection (control and MI rabbits; MI rabbits, 1 min): 1 ± 2 mmHg
Diastolic AP, change from baseline after injection (control and MI rabbits; MI rabbits, 5 min): 2 ± 2 mmHg
Heart rate, change from baseline after injection (control and MI rabbits; MI rabbits, 5 min): 3 ± 8 beat/min
Mean AP, change from baseline after injection (control and MI rabbits; MI rabbits, 5 min): 2 ± 2 mmHg
Systolic AP, change from baseline after injection (control and MI rabbits; MI rabbits, 5 min): 2 ± 2 mmHg
Diastolic AP, change from baseline after injection (control and MI rabbits; MI rabbits, 10 min): 1 ± 1 mmHg
Heart rate, change from baseline after injection (control and MI rabbits; MI rabbits, 10 min): 1 ± 6 beat/min
Mean AP, change from baseline after injection (control and MI rabbits; MI rabbits, 10 min): −1 ± 2 mmHg
Systolic AP, change from baseline after injection (control and MI rabbits; MI rabbits, 10 min): 0 ± 1 mmHg
Diastolic AP, change from baseline after injection (control and MI rabbits; MI rabbits, 20 min): 2 ± 2 mmHg
Heart rate, change from baseline after injection (control and MI rabbits; MI rabbits, 20 min): −7 ± 10 beat/min
Mean AP, change from baseline after injection (control and MI rabbits; MI rabbits, 20 min): 2 ± 3 mmHg
Systolic AP, change from baseline after injection (control and MI rabbits; MI rabbits, 20 min): 1 ± 7 mmHg
effect on MAP, SAP and DAP (control and MI rabbits; MI rabbits, during and after administration): no alterations of these parameters were observed
effect on ECG waveform, cardiac rhythm, HR and QTc interval (control and MI rabbits; control or MI rabbits, 1-, 5-, 10- and 20-minute post iv injection): did not alter
effect on MAP, SAP and DAP (control and MI rabbits; control rabbits): did not induce changes
dose without cardiovascular changes (MAP, HR, left ventricular contractility etc) (anesthetized naive dogs): ≤ 0.01 mg/kg
BBB permeability [2]: high BBB permeability
first pass extraction fraction (myocardial blood flow): 0.94
concentration (dose) inducing transit clinical signs (rapid and labored breathing, decreased activity, hunched posture, urination) (normal rats and dogs): ≥ 0.2 mg/kg
dose at which these clinical signs were not observed (normal rats and dogs): ≤ 0.1 mg/kg
